This is an account of results in patent US9278981B2, “Compounds and compositions for inhibiting the activity of ABL1, ABL2 and BCR-ABL1” (Novartis AG, priority 2012, dated 2016).

In experiment [1] the test system is Ba/F3-BCR-ABL1-WT cells. Kind of experiment: cells. The settings on record: Mus musculus, 48 h, read-out: Ba/F3-BCR-ABL1-WT IC50 [μM].
Text: To generate Ba/F3 cells that depend on BCR-ABL1 expression for growth and survival, Ba/F3 cells were engineered to express BCR-ABL1 using retroviral transduction with a MSCV based retroviral vector containing a p210 BCR-ABL1 expression cassette. […] These cells are referred to as Ba/F3-BCR-ABL-WT.
Ba/F3-BCR-ABL1-WT cells and Ba/F3-BCR-ABL1-T315I cells were maintained in RPMI1640 media with L-glutamine, HEPES (Lonza) and 10% FBS (Gibco).
For each cell line, the cell density was adjusted to 50 000 cells/mL and 50 μL (2500 cells) added per well of a 384-well assay plate.
Test compounds were resuspended in DMSO at a concentration of 10 mM. A serial three-fold dilution of each compound with DMSO was performed in 384-well plates using the Janus Liquid Dispenser (PerkinElmer). Compound was delivered to the assay plates containing 2500 cells in a 50 μL volume via Acoustic delivery from an ATS-100 (EDC).
Cells were incubated at 37° C. in a humidified environment with 5% carbon dioxide for 48 hours. Britelite plus solution (Perkin Elmer) was prepared according to the manufacturer's instructions and 25 μL added to each well of the assay plate. […] The degree of luminescence correlates with the number of cells in each well. The effect of each inhibitor concentration can therefore be calculated and IC50 values generated.
In experiment [2] the target is T1, ABL1 (64-515) (Homo sapiens (Human), UniProt P00519). Kind of experiment: Radio ABL1 (64-515) assay (radiometric filter-binding). Format: biochemical.
T1 sequence (P00519 64-515): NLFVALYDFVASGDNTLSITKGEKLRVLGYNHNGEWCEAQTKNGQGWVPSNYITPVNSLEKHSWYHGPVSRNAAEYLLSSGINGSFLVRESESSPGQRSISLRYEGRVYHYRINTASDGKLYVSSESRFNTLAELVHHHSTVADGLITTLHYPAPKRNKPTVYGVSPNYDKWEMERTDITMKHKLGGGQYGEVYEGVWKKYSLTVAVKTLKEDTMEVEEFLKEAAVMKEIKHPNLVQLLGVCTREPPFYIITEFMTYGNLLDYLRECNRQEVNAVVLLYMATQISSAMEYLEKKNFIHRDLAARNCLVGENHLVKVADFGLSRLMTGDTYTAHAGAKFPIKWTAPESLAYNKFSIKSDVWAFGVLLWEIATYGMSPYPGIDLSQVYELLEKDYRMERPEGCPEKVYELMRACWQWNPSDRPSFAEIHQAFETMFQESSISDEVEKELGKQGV
The target in experiment [3] is T1, ABL1 (64-515). The experiment is described as follows: Caliper ABL1 (64-515) assay (microfluidic mobility shift). Format: biochemical.
Experiment [4] deals with BCR-ABL1+KCL-22 cells. Kind of experiment: Acquired resistance in BCR-ABL1+KCL-22 cells in vitro. The settings on record: cells treated every 3-4 days. In kind it is cell-based.

Each structure is given as a SMILES string. Where only a bound is given, the exact number is not on record here.

On to `O=C(Nc1ccc(OC(F)(F)Cl)cc1)c1cnc(N2CC[C@@H](O)C2)c(-c2cncnc2)c1` [Example 170, (R)—N-(4-(Chlorodifluoromethoxy)phenyl)-6-(3-hydroxypyrrolidin-1-yl)-5-(pyrimidin-5-yl)nicotinamide], for which, in experiment [1], the IC50 was determined as 0.0005 µM.

For the compound `O=C(Nc1ccc(C(F)(F)C(F)(F)F)cc1)c1cnc(N2CC[C@@H](O)C2)c(-c2cncnc2)c1` [Example 208, (R)-6-(3-Hydroxypyrrolidin-1-yl)-N-(4-(perfluoroethyl)phenyl)-5-(pyrimidin-5-yl)nicotinamide], the figures for the IC50 in experiment [2], in experiment [3] and in experiment [1] were under 3 nM, 0.6 nM and 0.0039 µM, respectively.

`CC(F)(F)Oc1ccc(NC(=O)c2cnc(N3CC[C@@H](O)C3)c(-c3cncnc3)c2)cc1` [Example 215, (R)—N-(4-(1,1-Difluoroethoxy)phenyl)-6-(3-hydroxypyrrolidin-1-yl)-5-(pyrimidin-5-yl)nicotinamide]: the values for the IC50 in experiment [2], in experiment [3] and in experiment [1] were 1.2 nM, 7.9 nM and 0.0246 µM, respectively.

Take `O=C(Nc1ccc(S(F)(F)(F)(F)F)cc1)c1cnc(N2CC[C@@H](O)C2)c(-c2cncnc2)c1` [Example 216, (R)-6-(3-Hydroxypyrrolidin-1-yl)-5-(pyrimidin-5-yl)-N-(4-(pentafluorosulfanyl)phenyl)nicotinamide]: the IC50 in experiment [2] is 3 nM; in experiment [3], 0.7 nM; in experiment [1], 0.0074 µM.

For `O=C(Nc1ccc(SC(F)(F)Cl)cc1)c1cnc(N2CC[C@@H](O)C2)c(-c2cncc(F)c2)c1` [Example 218, (R)—N-(4-((Chlorodifluoromethyl)thio)phenyl)-5′-fluoro-2-(3-hydroxypyrrolidin-1-yl)-[3,3′-bipyridine]-5-carboxamide], the IC50 was found to be 3 nM in experiment [2], 0.6 nM in experiment [3] and 0.0009 µM in experiment [1].

Consider `O=C(Nc1ccc(OC(F)(F)Cl)cc1)c1cnc(N2CC[C@@H](CO)[C@@H](O)C2)c(-c2cncnc2)c1` [Example 257], for which the IC50 in experiment [2] came to 3 nM; in experiment [3], 0.6 nM; in experiment [1], 0.0011 µM.

Regarding `N#Cc1cncc(-c2cc(C(=O)Nc3ccc(OC(F)(F)Cl)cc3)cnc2N2C[C@@H](O)[C@@H](O)C2)c1` [Example 268], the IC50 in experiment [2] is 0.5 nM; in experiment [3], 0.4 nM; in experiment [1], 0.0032 µM.

Consider `N[C@H]1CN(c2ccc(C(=O)Nc3ccc(OC(F)(F)Cl)cc3)cc2-c2cncc(F)c2)C[C@@H]1O` [Example 285, 4-((3S,4S)-3-Amino-4-hydroxypyrrolidin-1-yl)-N-(4-(chlorodifluoromethoxy)phenyl)-3-(5-fluoropyridin-3-yl)benzamide], for which the IC50 was 1 nM in experiment [2], 0.6 nM in experiment [3] and 0.0053 µM in experiment [1].

On to `N#Cc1ccncc1-c1cc(C(=O)Nc2ccc(OC(F)(F)Cl)cc2)cnc1N1C[C@H](O)[C@@H](O)C1` [Example 290, N-(4-(Chlorodifluoromethoxy)phenyl)-4′-cyano-2-((3S,4S)-3,4-dihydroxypyrrolidin-1-yl)-[3,3′-bipyridine]-5-carboxamide], for which the values for the IC50 in experiment [2] and in experiment [3] were 2 nM and 0.8 nM, respectively.

Turning to `Cc1ncncc1-c1cc(C(=O)Nc2ccc(OC(F)(F)Cl)cc2)ccc1N1C[C@H](O)[C@@H](O)C1` [Example 297, N-(4-(Chlorodifluoromethoxy)phenyl)-4-((3S,4S)-3,4-dihydroxypyrrolidin-1-yl)-3-(4-methylpyrimidin-5-yl)benzamide], the IC50 amounted to 1.4 nM in experiment [3] and 0.0013 µM in experiment [1].

On to `Cc1cn(-c2cc(NC(=O)c3ccc(C)c(Nc4nccc(-c5cccnc5)n4)c3)cc(C(F)(F)F)c2)cn1` [nilotinib], for which the “time until acquired resistance” value in experiment [4] was 18 to 21 days.
